Measured values: US12077503B2, “Substituted cyclic amides and their use as herbicides” (FMC CORPORATION, priority 2015, dated 2024)

Experiments:
Assay type in all cases: in vivo
[1] = test system: ragweed (common ragweed, Ambrosia elatior); assay: Test A preemergence; details: for Plant response rating, Ragweed: 125 g ai/ha, preemergence, 0 to 100 scale (0 no effect, 100 complete control); for Ragweed plant response rating (0 to 100 scale, 0 is no effect, 100 is complete control): Preemergence, 500 g ai/ha, visual injury approx. 10 d
Procedure, shortened: (§1)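 Ratings of 0 (no effect) to 100 (complete control) come from visual comparison with untreated controls roughly 10 d after treatment. Test chemicals, formulated in a non-phytotoxic solvent mixture with surfactant, were applied either as a preemergence directed soil spray on seeded soil or postemergence to one- to two-leaf plants 2 to 10 cm tall.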

[2] = test system: barnyardgrass (Echinochloa crus-galli); assay: Test A preemergence; details: for Plant response rating, Barnyardgrass: 125 g ai/ha, preemergence, 0 to 100 scale (0 no effect, 100 complete control); for Barnyardgrass plant response rating (0 to 100 scale, 0 is no effect, 100 is complete control): Preemergence, 500 g ai/ha, visual injury approx. 10 d
Procedure, shortened: as §1

[3] = test system: giant foxtail (Setaria faberii); assay: Test A preemergence; details: for Plant response rating, Foxtail, Giant: 125 g ai/ha, preemergence, 0 to 100 scale (0 no effect, 100 complete control); for Foxtail, Giant plant response rating (0 to 100 scale, 0 is no effect, 100 is complete control): Preemergence, 500 g ai/ha, visual injury approx. 10 d
Procedure, shortened: as §1

[4] = test system: pigweed (Amaranthus retroflexus); assay: Test A preemergence; details: for Plant response rating, Pigweed: 125 g ai/ha, preemergence, 0 to 100 scale (0 no effect, 100 complete control); for Pigweed plant response rating (0 to 100 scale, 0 is no effect, 100 is complete control): Preemergence, 500 g ai/ha, visual injury approx. 10 d
[5] = test system: ryegrass, Italian (Italian ryegrass, Lolium multiflorum); assay: Test A preemergence; details: for Plant response rating, Ryegrass, Italian: 125 g ai/ha, preemergence, 0 to 100 scale (0 no effect, 100 complete control); for Ryegrass, Italian plant response rating (0 to 100 scale, 0 is no effect, 100 is complete control): Preemergence, 500 g ai/ha, visual injury approx. 10 d
Procedure, shortened: as §1

Kochia (Kochia scoparia) [6] = assay: Test A preemergence; details: for Plant response rating, Kochia: 125 g ai/ha, preemergence, 0 to 100 scale (0 no effect, 100 complete control); for Kochia plant response rating (0 to 100 scale, 0 is no effect, 100 is complete control): Preemergence, 500 g ai/ha, visual injury approx. 10 d
Procedure, shortened: as §1

[7] = test system: Galium (catchweed bedstraw, Galium aparine); assay: Test A postemergence; details: postemergence; for Galium plant response rating: 125 g ai/ha, visual injury rating on 0 to 100 scale (0 no effect, 100 complete control), approx. 10 d; for Plant response rating, Galium: 500 g ai/ha, 0 to 100 scale, 0 no effect, 100 complete control
Procedure, shortened: as §1

[8] = test system: ragweed (common ragweed, Ambrosia elatior); assay: Test A postemergence; details: postemergence; for Ragweed plant response rating: 125 g ai/ha, visual injury rating on 0 to 100 scale (0 no effect, 100 complete control), approx. 10 d; for Plant response rating, Ragweed: 500 g ai/ha, 0 to 100 scale, 0 no effect, 100 complete control
Procedure, shortened: as §1

[9] = test system: barnyardgrass (Echinochloa crus-galli); assay: Test A postemergence; details: postemergence; for Barnyardgrass plant response rating: 125 g ai/ha, visual injury rating on 0 to 100 scale (0 no effect, 100 complete control), approx. 10 d; for Plant response rating, Barnyardgrass: 500 g ai/ha, 0 to 100 scale, 0 no effect, 100 complete control
Procedure, shortened: as §1

[10] = test system: giant foxtail (Setaria faberii); assay: Test A postemergence; details: postemergence; for Foxtail, Giant plant response rating: 125 g ai/ha, visual injury rating on 0 to 100 scale (0 no effect, 100 complete control), approx. 10 d; for Plant response rating, Foxtail, Giant: 500 g ai/ha, 0 to 100 scale, 0 no effect, 100 complete control
Procedure, shortened: as §1

[11] = test system: pigweed (Amaranthus retroflexus); assay: Test A postemergence; details: postemergence; for Pigweed plant response rating: 125 g ai/ha, visual injury rating on 0 to 100 scale (0 no effect, 100 complete control), approx. 10 d; for Plant response rating, Pigweed: 500 g ai/ha, 0 to 100 scale, 0 no effect, 100 complete control
Procedure, shortened: as §1

[12] = test system: ryegrass, Italian (Italian ryegrass, Lolium multiflorum); assay: Test A postemergence; details: postemergence; for Ryegrass, Italian plant response rating: 125 g ai/ha, visual injury rating on 0 to 100 scale (0 no effect, 100 complete control), approx. 10 d; for Plant response rating, Ryegrass, Italian: 500 g ai/ha, 0 to 100 scale, 0 no effect, 100 complete control
Procedure, shortened: as §1

Kochia (Kochia scoparia) [13] = assay: Test A postemergence; details: postemergence; for Kochia plant response rating: 125 g ai/ha, visual injury rating on 0 to 100 scale (0 no effect, 100 complete control), approx. 10 d; for Plant response rating, Kochia: 500 g ai/ha, 0 to 100 scale, 0 no effect, 100 complete control
Procedure, shortened: as §1

[14] = test system: wheat (Triticum aestivum); assay: Test A postemergence; details: postemergence; for Wheat plant response rating: 125 g ai/ha, visual injury rating on 0 to 100 scale (0 no effect, 100 complete control), approx. 10 d; for Plant response rating, Wheat: 500 g ai/ha, 0 to 100 scale, 0 no effect, 100 complete control
Procedure, shortened: as §1

corn (Zea mays) = assay: Test A postemergence; details: postemergence; for Corn plant response rating: 125 g ai/ha, visual injury rating on 0 to 100 scale (0 no effect, 100 complete control), approx. 10 d; for Plant response rating, Corn: 500 g ai/ha, 0 to 100 scale, 0 no effect, 100 complete control
Procedure, shortened: as §1

[15] = test system: blackgrass (Alopecurus myosuroides); assay: Test A postemergence; details: postemergence; for Blackgrass plant response rating: 125 g ai/ha, visual injury rating on 0 to 100 scale (0 no effect, 100 complete control), approx. 10 d; for Plant response rating, Blackgrass: 500 g ai/ha, 0 to 100 scale, 0 no effect, 100 complete control
Procedure, shortened: as §1

[16] = test system: barnyardgrass (Echinochloa crus-galli); assay: Test B flooded paddy test; details: Flood, 0 to 100 scale where 0 is no effect and 100 is complete control, 13 to 15 d
Procedure, shortened: (§2)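 Percent control, visually estimated after 13–15 d in the greenhouse on a 0–100 basis, compares treated pots with untreated ones; compound was put into paddy water 3 cm above the soil when plants had two leaves.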

[17] = test system: sedge, umbrella (small-flower umbrella sedge, Cyperus difformis); assay: Test B flooded paddy test; details: Flood, 0 to 100 scale where 0 is no effect and 100 is complete control, 13 to 15 d
Procedure, shortened: as §2

[18] = test system: ducksalad (Heteranthera limosa); assay: Test B flooded paddy test; details: Flood, 0 to 100 scale where 0 is no effect and 100 is complete control, 13 to 15 d
Procedure, shortened: as §2

rice (Oryra sativa) = assay: Test B flooded paddy test; details: Flood, 0 to 100 scale where 0 is no effect and 100 is complete control, 13 to 15 d
Procedure, shortened: as §2

| Structure (SMILES) | Plant response rating, Ragweed [1] | Ragweed plant response rating (0 to 100 scale, 0 is no effect, 100 is complete control) [1] | Plant response rating, Barnyardgrass [2] | Barnyardgrass plant response rating (0 to 100 scale, 0 is no effect, 100 is complete control) [2] | Plant response rating, Foxtail, Giant [3] | Foxtail, Giant plant response rating (0 to 100 scale, 0 is no effect, 100 is complete control) [3] | Plant response rating, Pigweed [4] | Pigweed plant response rating (0 to 100 scale, 0 is no effect, 100 is complete control) [4] | Plant response rating, Ryegrass, Italian [5] | Ryegrass, Italian plant response rating (0 to 100 scale, 0 is no effect, 100 is complete control) [5] | Plant response rating, Kochia (Kochia (Kochia scoparia) [6]) | Kochia plant response rating (0 to 100 scale, 0 is no effect, 100 is complete control) (Kochia (Kochia scoparia) [6]) | Galium plant response rating [7] | Plant response rating, Galium [7] | Ragweed plant response rating [8] | Plant response rating, Ragweed [8] | Barnyardgrass plant response rating [9] | Plant response rating, Barnyardgrass [9] | Foxtail, Giant plant response rating [10] | Plant response rating, Foxtail, Giant [10] | also measured |
| --- | --- | --- | --- | --- | --- | --- | --- | --- | --- | --- | --- | --- | --- | --- | --- | --- | --- | --- | --- | --- | --- |
| O=C1NCC(c2ccc(Br)cc2)C1C(=O)Nc1ccccc1F (stereo not drawn) [Compound 448] | 0 | 20 | 90 | 90 | 90 | 90 | 20 | 40 | 0 | 20 | 20 | 50 | 30 | 50 | 0 | 0 | 80 | 90 | 60 | 80 | Pigweed plant response rating [11]: 20; Plant response rating, Pigweed [11]: 40; Ryegrass, Italian plant response rating [12]: 0; Plant response rating, Ryegrass, Italian [12]: 20; Kochia plant response rating (Kochia (Kochia scoparia) [13]): 30; Plant response rating, Kochia (Kochia (Kochia scoparia) [13]): 50; Wheat plant response rating [14]: 0; Plant response rating, Wheat [14]: 0; Corn plant response rating (corn (Zea mays)): 0; Plant response rating, Corn (corn (Zea mays)): 0; Blackgrass plant response rating [15]: 0; Plant response rating, Blackgrass [15]: 30; Plant response rating, Barnyardgrass ([16]; 250 g ai/ha): 40; Plant response rating, Sedge, Umbrella ([17]; 250 g ai/ha): 0; Plant response rating, Ducksalad ([18]; 250 g ai/ha): 95; Plant response rating, Rice (rice (Oryra sativa); 250 g ai/ha): 0 |
| CN1CC(c2ccc(F)cc2)C(C(=O)Nc2ccc(F)cc2F)C1=O (stereo not drawn) [Compound 440] | 20 | 40 | 90 | 100 | 90 | 100 | 20 | 80 | 0 | 50 | 60 | 70 | 40 | 40 | 0 | 0 | 90 | 90 | 90 | 90 | Pigweed plant response rating [11]: 0; Plant response rating, Pigweed [11]: 20; Ryegrass, Italian plant response rating [12]: 0; Plant response rating, Ryegrass, Italian [12]: 60; Kochia plant response rating (Kochia (Kochia scoparia) [13]): 30; Plant response rating, Kochia (Kochia (Kochia scoparia) [13]): 40; Wheat plant response rating [14]: 0; Plant response rating, Wheat [14]: 50; Corn plant response rating (corn (Zea mays)): 0; Plant response rating, Corn (corn (Zea mays)): 20; Blackgrass plant response rating [15]: 30; Plant response rating, Blackgrass [15]: 50; Plant response rating, Barnyardgrass ([16]; 250 g ai/ha): 70; Plant response rating, Sedge, Umbrella ([17]; 250 g ai/ha): 0; Plant response rating, Ducksalad ([18]; 250 g ai/ha): 95; Plant response rating, Rice (rice (Oryra sativa); 250 g ai/ha): 0 |
| COc1ccc(NC(=O)C2C(=O)NCC2c2cccc(OC(F)F)c2)c(F)c1 (stereo not drawn) [Compound 425] | 0 | 0 | 0 | 20 | 40 | 70 | 0 | 0 | 0 | 0 | 0 | 0 | 0 | 0 | 0 | 0 | 20 | 30 | 20 | 30 | Pigweed plant response rating [11]: 0; Plant response rating, Pigweed [11]: 0; Ryegrass, Italian plant response rating [12]: 0; Plant response rating, Ryegrass, Italian [12]: 0; Kochia plant response rating (Kochia (Kochia scoparia) [13]): 0; Plant response rating, Kochia (Kochia (Kochia scoparia) [13]): 0; Wheat plant response rating [14]: 0; Plant response rating, Wheat [14]: 0; Corn plant response rating (corn (Zea mays)): 0; Plant response rating, Corn (corn (Zea mays)): 0; Blackgrass plant response rating [15]: 0; Plant response rating, Blackgrass [15]: 0; Plant response rating, Barnyardgrass ([16]; 500 g ai/ha): 0; Plant response rating, Sedge, Umbrella ([17]; 500 g ai/ha): 0; Plant response rating, Ducksalad ([18]; 500 g ai/ha): 30; Plant response rating, Rice (rice (Oryra sativa); 500 g ai/ha): 0 |
| CCc1ccc(C2CNC(=O)C2C(=O)Nc2ccccc2F)cc1 (stereo not drawn) [Compound 466] | 0 | 30 | 90 | 90 | 70 | 90 | 0 | 0 | 0 | 20 | 0 | 0 | 0 | 0 | 0 | 30 | 80 | 90 | 20 | 80 | Pigweed plant response rating [11]: 0; Plant response rating, Pigweed [11]: 0; Ryegrass, Italian plant response rating [12]: 0; Plant response rating, Ryegrass, Italian [12]: 20; Kochia plant response rating (Kochia (Kochia scoparia) [13]): 0; Plant response rating, Kochia (Kochia (Kochia scoparia) [13]): 0; Wheat plant response rating [14]: 0; Plant response rating, Wheat [14]: 20; Corn plant response rating (corn (Zea mays)): 0; Plant response rating, Corn (corn (Zea mays)): 30; Blackgrass plant response rating [15]: 30; Plant response rating, Blackgrass [15]: 60; Plant response rating, Barnyardgrass ([16]; 250 g ai/ha): 0; Plant response rating, Sedge, Umbrella ([17]; 250 g ai/ha): 0; Plant response rating, Ducksalad ([18]; 250 g ai/ha): 0; Plant response rating, Rice (rice (Oryra sativa); 250 g ai/ha): 0 |
